{"source": "patent US7994119B2", "about": "“Compounds for control of appetite” (University Of Cincinnati, priority 2004, dated 2011)", "key": {"129/J male mice": {"tested_on": "129/J male mice", "assay": "feeding patterns of fasted mice after intraperitoneal injection (food intake)", "assay_type": "in vivo", "details": "mice fasted 24 hours; for control of food intake (PYY analogs): numbers only in FIGS. 3-5", "experimental": "To study the feeding patterns of animals treated with the extended tripeptide BG-116, eight week old 129/J male mice are individually housed under 12-hour light/dark cycles with free access to water and standard chow. After acclimatizing for two weeks, mice are fasted 24 hours before the experiment. Saline (0.1 ml) or peptide (2 mg/mice) in saline (0.1 ml) is injected intraperitoneally, and the food intake during the next 4, 6, and 24 hours is monitored and quantified.\nTo study the feeding patterns of animals treated with the O-glycosylated tripeptide, eight week old 129/J male mice are individually housed under 12-hour light/dark cycles with free access to water and standard chow. After acclimatizing for two weeks, mice are fasted 24 hours before the experiment. Saline (0.1 ml) or peptide (2 mg/mice) in saline (0.1 ml) is injected intraperitoneally, and the food intake during the next 4 and 6 hours is monitored and quantified.\nTo study the feeding patterns of animals treated with BT-48 or N-α-Ac[Nle^24,28, Trp^30, Nva^31, ψ^35/36]PYY(22-36)-NH2 wherein ψ is —CH2-NH— (SEQ. ID. NO. 8), eight week old 129/J male mice are individually housed under 12-hour light/dark cycles with free access to water and standard chow. After acclimatizing for two weeks, mice are fasted 24 hours before the experiment. Saline (0.1 ml) or peptide (100 μg/mice) in saline (0.1 ml) is injected intraperitoneally, and the food intake during the next 4 and 6 hours is monitored and quantified.\nTo study the feeding patterns of animals treated with the BT-56 or N-α-Ac-[Trp^27, ψ^35/36]PYY(25-36)-NH2 wherein ψ is —CH2-NH— (SEQ. ID. NO. 7), eight week old 129/J male mice are individually housed under 12-hour light/dark cycles with free access to water and standard chow. After acclimatizing for two weeks, mice are fasted 24 hours before the experiment. Saline (0.1 ml) or peptide (100 μg/mice) in saline (0.1 ml) is injected intraperitoneally, and the food intake during the next 4 hours is monitored and quantified.\nTo study the feeding patterns of animals treated with BWX-115 or N-α-Ac-[Trp^30]PYY(25-36)-NH2 wherein ψ is —CH2-NH— (SEQ. ID. NO. 6), eight week old 129/J male mice are individually housed under 12-hour light/dark cycles with free access to water and standard chow. After acclimatizing for two weeks, mice are fasted 24 hours before the experiment. Saline (0.1 ml) or peptide (20 μg/mice) in saline (0.1 ml) is injected intraperitoneally, and the food intake during the next 4 and 24 hours is monitored and quantified."}, "Y5": {"target": "T1, Y5 (Homo sapiens, UniProt Q15761)", "T1 sequence (Q15761 1-445)": "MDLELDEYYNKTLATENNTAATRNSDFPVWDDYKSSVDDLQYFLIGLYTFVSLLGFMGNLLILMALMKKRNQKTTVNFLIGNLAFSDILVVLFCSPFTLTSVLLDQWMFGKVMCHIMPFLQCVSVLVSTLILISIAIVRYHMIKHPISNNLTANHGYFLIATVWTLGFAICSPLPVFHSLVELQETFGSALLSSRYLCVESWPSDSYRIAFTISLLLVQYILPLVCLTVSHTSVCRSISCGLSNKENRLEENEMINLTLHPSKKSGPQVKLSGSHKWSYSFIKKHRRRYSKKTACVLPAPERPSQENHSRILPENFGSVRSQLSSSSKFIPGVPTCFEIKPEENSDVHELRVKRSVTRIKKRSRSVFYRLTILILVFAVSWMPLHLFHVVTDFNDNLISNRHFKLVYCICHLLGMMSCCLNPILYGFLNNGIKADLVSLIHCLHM", "details": "cited from earlier work"}, "[1]": {"tested_on": "normal and fasted mice and rats, normal and obese humans", "details": "peripheral administration; cited from earlier work"}, "Y4": {"target": "Y4 (Homo sapiens, UniProt P50391)", "sequence (P50391 whole entry)": "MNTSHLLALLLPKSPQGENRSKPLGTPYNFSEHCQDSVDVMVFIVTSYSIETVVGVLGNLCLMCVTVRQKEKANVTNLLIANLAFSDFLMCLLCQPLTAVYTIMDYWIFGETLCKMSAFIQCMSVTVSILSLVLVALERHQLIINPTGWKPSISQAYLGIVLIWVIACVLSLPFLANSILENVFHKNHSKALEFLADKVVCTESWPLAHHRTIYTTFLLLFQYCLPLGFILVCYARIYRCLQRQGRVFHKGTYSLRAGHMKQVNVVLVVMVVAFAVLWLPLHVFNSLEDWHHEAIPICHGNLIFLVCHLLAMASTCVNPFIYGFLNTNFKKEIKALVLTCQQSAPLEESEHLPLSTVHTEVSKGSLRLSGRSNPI", "details": "cited from earlier work"}}}
{"substance": "N-α-Ac-Trp-Arg-Tyr-[β-D-Glc]-NH2 [BG-7]", "values": [{"measurement": "inhibition of feeding (O-glycosylated tripeptide)", "setting": "129/J male mice; numbers only in FIG. 2", "value": "can inhibit feeding in subjects"}]}
{"substance": "N-α-Ac-[Trp^27, ψ^35/36]PYY(25-36)-NH2 (Ac-RHWLNLVTRQRY-NH2; also: reduced CH2-NH bond between residues 35/36) [BT-56]", "values": [{"measurement": "control of food intake (PYY analogs)", "setting": "129/J male mice", "value": "could be used to control food intake in animals and humans"}]}
{"substance": "N-α-Ac-[Trp^30]PYY(25-36)-NH2 (Ac-RHYLNWVTRQRY-NH2) [BWX-115]", "values": [{"measurement": "control of food intake (PYY analogs)", "setting": "129/J male mice", "value": "could be used to control food intake in animals and humans"}]}
{"substance": "N-α-Ac[Nle^24,28, Trp^30, Nva^31, ψ^35/36]PYY(22-36)-NH2 (ASXRHYXNWXTRQRY; N-acetyl, C-amide, reduced CH2-NH bond 35/36; Artficial peptide) [BT-48]", "values": [{"measurement": "control of food intake (PYY analogs)", "setting": "129/J male mice", "value": "could be used to control food intake in animals and humans"}]}
{"substance": "PYY(3-36): a NPY Y2-preferring ligand", "values": [{"measurement": "activation of Y5 receptors", "setting": "Y5", "value": "potently activate"}, {"measurement": "food intake", "setting": "[1]", "value": "attenuate food intake"}, {"measurement": "activation of Y4 receptors", "setting": "Y4", "value": "potently activate"}]}
